# Test results from patent publication US9969698B2, “Quinoxalinyl-piperazinamide methods of use” (REXAHN PHARMACEUTICALS, INC., priority 2015, dated 2018).
# Like-named read-outs stand apart in the source and are kept apart here.
# Assay: Human pharmacokinetics, dose-ranging study
# Type: in vivo
# Conditions: for AUC(0-t) / Cmax / half-life / Tmax: human, plasma, po, oral capsule, fasted; for Cmax: read-out: Cmax; for half-life: read-out: T1/2 (converted); for Tmax: read-out: Tmax
# Protocol: In a dose-ranging study, the pharmacokinetics (PK), safety and tolerability of RX-5902 at various oral doses were evaluated. Subjects with advanced or metastatic solid tumors were administered capsules containing RX-5902 at daily doses of 25-775 mg once weekly, 250-300 mg three times a week, 150-300 mg five times a week, or 300-350 mg seven times a week of RX-5902 for up to 6 dosing cycles. Each cycle consisting of 1-5 doses of RX-5902 per week for 3 weeks followed by 1 week of rest, or 5-7 doses of RX-5902 per week for 4 weeks without any rest per 4-week cycle. All but one subject had fasted from food for at least 8 hours before administration. One subject received 300 mg RX-5902 in fed state. Plasma concentrations were measured on Days 1 and 15, for 48 hrs, using a validated LC-MS/MS assay, and noncompartmental pharmacokinetic parameters were calculated using Phoenix WinNonlin, Version 6.4.
# Preliminary PK data after a single administration is presented in FIG. 1 (for Subjects #1-11) and Table 3.
# [1] = 25 mg, 25 mg, 1 per week, Day 1
# [2] = 50 mg, 50 mg, 1 per week, Day 1
# [3] = 100 mg, 100 mg, 1 per week, Day 1
# [4] = 150 mg, 150 mg, 1 per week, Day 1
# [5] = 150 mg, 150 mg, 5 per week, Day 1
# [6] = 150 mg, 150 mg, 5 per week, Day 15
# [7] = 200 mg, 200 mg, 5 per week, Day 1
# [8] = 200 mg, 200 mg, 5 per week, Day 15
# [9] = 225 mg, 225 mg, 1 per week, Day 1
# [10] = 250 mg, 250 mg, 3 per week, Day 1
# [11] = 250 mg, 250 mg, 3 per week, Day 15
# [12] = 300 mg, 300 mg, 1 per week, Day 1
smiles,measurement,setting,value
"COc1cc(OC)cc(N2CCN(C(=O)Nc3nc4cc(F)ccc4nc3OC)CC2)c1 [RX-5902, 4-(3,5-dimethoxyphenyl)-N-(7-fluoro-3-methoxyquinoxalin-2-yl)piperazine-1-carboxamide]",exposure in fed state compared to fasted state,"300 mg oral, one fed subject",significantly higher exposure
same,AUC(0-t),"25 mg, 25 mg, 1 per week, Day 1, read-out: AUC0-24",830 ng·h/mL
same,AUC(0-t),"25 mg, 25 mg, 1 per week, Day 1, read-out: AUC0-48",894 ng·h/mL
same,Cmax,[1],99.1 ng/mL
same,half-life,[1],5.8 h
same,Tmax,[1],6 h
same,AUC(0-t),"50 mg, 50 mg, 1 per week, Day 1, read-out: AUC0-24",1030 ng·h/mL
same,AUC(0-t),"50 mg, 50 mg, 1 per week, Day 1, read-out: AUC0-48",1310 ng·h/mL
same,Cmax,[2],109 ng/mL
same,half-life,[2],13.2 h
same,Tmax,[2],1.5 h
same,AUC(0-t),"100 mg, 100 mg, 1 per week, Day 1, read-out: AUC0-24",1780 ng·h/mL
same,AUC(0-t),"100 mg, 100 mg, 1 per week, Day 1, read-out: AUC0-48",2340 ng·h/mL
same,Cmax,[3],252 ng/mL
same,half-life,[3],27.6 h
same,Tmax,[3],2 h
same,AUC(0-t),"150 mg, 150 mg, 1 per week, Day 1, read-out: AUC0-24",2690 ng·h/mL
same,AUC(0-t),"150 mg, 150 mg, 1 per week, Day 1, read-out: AUC0-48",3280 ng·h/mL
same,Cmax,[4],226 ng/mL
same,half-life,[4],11.5 h
same,Tmax,[4],6 h
same,AUC(0-t),"150 mg, 150 mg, 5 per week, Day 1, read-out: AUC0-24",2150 ng·h/mL
same,Cmax,[5],227 ng/mL
same,Tmax,[5],2 h
same,AUC(0-t),"150 mg, 150 mg, 5 per week, Day 15, read-out: AUC0-24",3720 ng·h/mL
same,Cmax,[6],347 ng/mL
same,Tmax,[6],1 h
same,AUC(0-t),"200 mg, 200 mg, 5 per week, Day 1, read-out: AUC0-24",2750 ng·h/mL
same,Cmax,[7],337 ng/mL
same,half-life,[7],8.5 h
same,Tmax,[7],4 h
same,AUC(0-t),"200 mg, 200 mg, 5 per week, Day 15, read-out: AUC0-24",4030 ng·h/mL
same,Cmax,[8],440 ng/mL
same,Tmax,[8],2 h
same,AUC(0-t),"225 mg, 225 mg, 1 per week, Day 1, read-out: AUC0-24",3420 ng·h/mL
same,AUC(0-t),"225 mg, 225 mg, 1 per week, Day 1, read-out: AUC0-48",4310 ng·h/mL
same,Cmax,[9],364 ng/mL
same,half-life,[9],12 h
same,Tmax,[9],4 h
same,AUC(0-t),"250 mg, 250 mg, 3 per week, Day 1, read-out: AUC0-24",3980 ng·h/mL
same,AUC(0-t),"250 mg, 250 mg, 3 per week, Day 1, read-out: AUC0-48",5210 ng·h/mL
same,Cmax,[10],394 ng/mL
same,half-life,[10],14 h
same,Tmax,[10],2 h
same,AUC(0-t),"250 mg, 250 mg, 3 per week, Day 15, read-out: AUC0-24",4810 ng·h/mL
same,AUC(0-t),"250 mg, 250 mg, 3 per week, Day 15, read-out: AUC0-48",7770 ng·h/mL
same,Cmax,[11],403 ng/mL
same,Tmax,[11],2 h
same,AUC(0-t),"300 mg, 300 mg, 1 per week, Day 1, read-out: AUC0-24",4680 ng·h/mL
same,AUC(0-t),"300 mg, 300 mg, 1 per week, Day 1, read-out: AUC0-48",6140 ng·h/mL
same,Cmax,[12],318 ng/mL
same,half-life,[12],14.6 h
